{"source": "patent US9120796B2", "about": "“B-lactamase inhibitor picoline salt” (Cubist Pharmaceuticals, Inc., priority 2013, dated 2015)", "key": {"[1]": {"assay": "Solution stability of salt forms (purity change relative to starting purity)", "excerpt": "As part of the program to improve the process for the manufacture of the sodium salt of (2S,5R)-2-(1,3,4-oxadiazol-2-yl)-7-oxo-1,6-diazabicyclo[3.2.1]octan-6-yl hydrogen sulfate, a new intermediate capable of isolation and utility in the production was sought.\nAdditionally, the picoline salt precursor was examined for solution stability as an alternative hold point for the process."}, "[2]": {"assay": "Stability of isolated solid picoline salt at 2 weeks", "format": "physicochemical", "details": "FIG. 23", "excerpt": "Also, the volume inefficiency, throughput bottlenecks, and impurity generation associated with the TBA to Na salt resin exchange process created the need for an improved step. Accordingly, there was a need for a stable solid that could be isolated, stored, and be used as needed to produce the desired sodium API in a reliable, scalable process. In screening different salt forms and examining the potential for crystallizations (as a means to isolate the salt forms), the TBA, pyridine, 5-ethyl-2-methylpyridine, and 2,6-lutidine forms of the API were not able to be successfully isolated in solid form."}, "[3]": {"assay": "Solubility characteristics of crystalline form", "format": "physicochemical", "details": "a particular (crystalline) form", "excerpt": "The compound of Formula (II) is the 2-picoline salt of (2S,5R)-2-(1,3,4-oxadiazol-2-yl)-7-oxo-1,6-diazabicyclo[3.2.1]octan-6-yl hydrogen sulfate, i.e., 2-methylpyridin-1-ium (2S,5R)-2-(1,3,4-oxadiazol-2-yl)-7-oxo-1,6-diazabicyclo[3.2.1]octan-6-yl sulfate."}}, "note": "Where a name gives a salt, the structure may show the parent alone.", "data": [{"compound": "tetrabutylammonium (2S,5R)-2-(1,3,4-oxadiazol-2-yl)-7-oxo-1,6-diazabicyclo[3.2.1]octan-6-yl sulfate [TBA salt, reference compound]", "values": [{"measurement": "solution stability in aqueous environments", "setting": "[1]; aqueous solution, high dilution (~1 wt %), FIGS. 21A and 21B", "result": "found to be a risk for long term scale-up"}]}, {"compound": "O=C1N2C[C@@H](CC[C@H]2c2nnco2)N1OS(=O)(=O)O", "note": "[Formula (II), 2-methylpyridin-1-ium (2S,5R)-2-(1,3,4-oxadiazol-2-yl)-7-oxo-1,6-diazabicyclo[3.2.1]octan-6-yl sulfate]", "values": [{"measurement": "solution stability in dichloromethane solution", "setting": "[1]; DCM, room temperature, compared with the TBA salt, FIGS. 22A and 22B", "result": "significantly inferior to the TBA salt"}, {"measurement": "stability in solution", "setting": "[1]; in solution, early clinical productions", "result": "unstable in solution"}, {"measurement": "stability of isolated solid", "setting": "[2]", "result": "found to be stable"}, {"measurement": "solubility characteristics", "setting": "[3]", "result": "low solubility"}]}]}
